From US20240262826A1, “WILD TYPE KIT INHIBITORS” (Blueprint Medicines Corporation, priority 2022, published 2024)

How the values were obtained:
[1] = biological target: wild type c-kit (Homo sapiens (Human), UniProt P10721); assay: MSD Phospho c-Kit (Tyr721) Assay Whole Cell Lysate Kit in SCF-stimulated M-07e cells (pKIT assay, marked *); type: cell-based; details: Meso Scale Discovery (MSD) assay (values marked *)
Procedure: The ability of compounds of the disclosure (described herein as test compounds) to inhibit autophosphorylation of wild type c-kit was measures using either a PathScan phospho c-kit (Tyr719) sandwich ELISA (CST #7298) or a Phospho c-Kit (Tyr721) Assay Whole Cell Lysate Kit (MSD: 515DPD/catalog number K15119D-2).
For the MSD Phospho c-Kit (Tyr721) Assay Whole Cell Lysate Kit: M-07e cells were maintained in Iscove's Modified Dulbecco's Medium (IMDM) media supplemented with 10% FBS, 5 ng/ml granulocyte-macrophage colony-stimulating factor (GM-CSF) and 100 units/mL Penicillin-Streptomycin, and grown in a 37° C., 5% CO2 in a humidified tissue culture incubator. M-07e cells were washed with phenol red-free, serum-free, GM-CSF-free IMDM and seeded in the same media at 100,000 cells well in a volume of 50 ul in a 96-well U-bottom plate. The cells were incubated for 4 hours, followed by the addition of test compound at a final DMSO concentration of 0.25% for 60 min at 37° C. to generate an 8-point dose concentration series of test compounds. The cells were stimulated with 50 ng/ml human SCF for 10 min at room temperature. Cells were then lysed by the addition of 16.5 ul of PerkinElmer 5× AlphaLISA Lysis Buffer supplemented with Cell Signaling Technologies protease/phosphatase inhibitor. Lysis was encouraged by shaking at 4° C. for 30 minutes.
25 ul of lysate was transferred to the MSD plate and the plate was shaken at 700 rpm at room temperature for one hour, followed by washing 3 times with Tris wash buffer. Next, 25 ul of detection antibody solution (diluted from 50× stock in antibody dilution buffer) was added. After shaking at 700 rpm at room temperature for one hour, the plate was washed 3 times with Tris wash buffer. The plate was then read on MSD Sector Imager immediately after 150 ul of reading buffer added to each well.
An IC50 was calculated using a 4-parameter logistic nonlinear regression.

[2] = biological target: human P-glycoprotein (P-gp, MDR1) (Homo sapiens (Human), UniProt P08183); assay: MDCK-MDR1 cell monolayer drug transport assay (P-gp efflux ratio); type: in vitro ADME; details: pH 7.4, MDCK-MDR1 cells, 1 uM concentration of compound, read-out: Pgp Efflux Ratio, 1 uM
How it was run: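 P-gp substrate potential tested in MDCK-MDR1 monolayers on Transwell supports, cultured 4-8 days; monolayers with TEER <42 ohms·cm2 discarded. Transport run in HBSS (10 mM HEPES, pH 7.4) at 37° C with compound working solution at 1 μM.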

Sequence of human P-glycoprotein (P-gp, MDR1) (P08183 whole entry): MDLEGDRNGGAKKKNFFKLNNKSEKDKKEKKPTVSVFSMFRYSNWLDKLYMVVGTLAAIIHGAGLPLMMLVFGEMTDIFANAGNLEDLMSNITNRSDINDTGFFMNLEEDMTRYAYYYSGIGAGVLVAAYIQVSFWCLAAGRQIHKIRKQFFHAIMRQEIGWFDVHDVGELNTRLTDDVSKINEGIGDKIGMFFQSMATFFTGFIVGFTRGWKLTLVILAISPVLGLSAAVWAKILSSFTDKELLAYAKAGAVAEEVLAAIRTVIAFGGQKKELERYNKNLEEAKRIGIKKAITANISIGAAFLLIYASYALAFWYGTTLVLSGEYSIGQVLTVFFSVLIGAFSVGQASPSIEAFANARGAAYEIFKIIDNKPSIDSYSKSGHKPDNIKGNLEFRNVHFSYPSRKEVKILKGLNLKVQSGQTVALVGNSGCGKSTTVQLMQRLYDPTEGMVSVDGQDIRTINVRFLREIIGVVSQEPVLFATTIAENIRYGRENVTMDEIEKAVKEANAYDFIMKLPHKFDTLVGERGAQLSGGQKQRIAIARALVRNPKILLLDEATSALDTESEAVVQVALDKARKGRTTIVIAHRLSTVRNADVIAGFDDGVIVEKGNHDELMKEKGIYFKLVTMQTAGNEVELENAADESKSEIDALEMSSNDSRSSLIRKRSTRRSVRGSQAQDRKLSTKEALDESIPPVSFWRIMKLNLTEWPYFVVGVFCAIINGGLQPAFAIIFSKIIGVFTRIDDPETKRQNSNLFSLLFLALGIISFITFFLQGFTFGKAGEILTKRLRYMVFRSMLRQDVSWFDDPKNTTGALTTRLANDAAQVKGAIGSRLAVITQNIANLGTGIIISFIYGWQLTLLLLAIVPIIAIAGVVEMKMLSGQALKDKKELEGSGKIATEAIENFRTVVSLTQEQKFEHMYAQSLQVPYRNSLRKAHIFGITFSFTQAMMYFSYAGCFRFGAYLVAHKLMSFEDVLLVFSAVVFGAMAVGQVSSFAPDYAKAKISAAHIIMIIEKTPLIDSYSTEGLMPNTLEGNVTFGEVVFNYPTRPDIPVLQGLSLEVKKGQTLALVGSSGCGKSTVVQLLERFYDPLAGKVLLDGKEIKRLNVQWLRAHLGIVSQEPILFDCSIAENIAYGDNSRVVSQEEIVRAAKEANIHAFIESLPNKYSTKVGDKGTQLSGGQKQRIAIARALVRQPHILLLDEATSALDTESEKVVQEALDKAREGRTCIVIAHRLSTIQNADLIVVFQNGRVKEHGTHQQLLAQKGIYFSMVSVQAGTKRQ
Sequence of wild type c-kit (P10721 26-976): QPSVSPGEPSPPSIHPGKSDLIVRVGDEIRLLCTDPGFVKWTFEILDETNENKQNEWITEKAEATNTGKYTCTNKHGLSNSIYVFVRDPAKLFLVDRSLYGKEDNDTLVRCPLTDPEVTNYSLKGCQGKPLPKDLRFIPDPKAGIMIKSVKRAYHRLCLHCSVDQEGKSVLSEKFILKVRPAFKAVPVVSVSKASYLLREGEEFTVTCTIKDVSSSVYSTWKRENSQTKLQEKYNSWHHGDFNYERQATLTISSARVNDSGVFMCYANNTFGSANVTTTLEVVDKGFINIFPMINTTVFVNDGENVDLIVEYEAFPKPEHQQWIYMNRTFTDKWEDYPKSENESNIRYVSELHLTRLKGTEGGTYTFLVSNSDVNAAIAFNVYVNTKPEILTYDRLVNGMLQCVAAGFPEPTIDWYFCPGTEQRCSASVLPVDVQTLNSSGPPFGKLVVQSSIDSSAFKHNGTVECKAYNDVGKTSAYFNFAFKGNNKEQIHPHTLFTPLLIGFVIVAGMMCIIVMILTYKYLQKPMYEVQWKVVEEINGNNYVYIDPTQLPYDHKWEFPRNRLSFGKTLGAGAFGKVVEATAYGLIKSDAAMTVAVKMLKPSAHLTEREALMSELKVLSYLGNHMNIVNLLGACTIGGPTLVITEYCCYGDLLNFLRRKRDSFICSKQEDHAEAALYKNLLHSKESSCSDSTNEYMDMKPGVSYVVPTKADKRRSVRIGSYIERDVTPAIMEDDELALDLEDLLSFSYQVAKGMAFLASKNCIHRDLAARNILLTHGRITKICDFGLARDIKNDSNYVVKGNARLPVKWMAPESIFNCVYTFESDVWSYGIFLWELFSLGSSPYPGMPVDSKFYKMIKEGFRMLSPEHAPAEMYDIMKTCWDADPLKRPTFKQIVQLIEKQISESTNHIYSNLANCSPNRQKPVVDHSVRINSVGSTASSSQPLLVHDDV

| Compound | IC50 [1] [nM] | efflux ratio at 2 h, 1 µM [2] |
| --- | --- | --- |
| Cc1ccc(-c2nnn([C@H]3C[C@H](C(F)(F)F)C3)n2)cc1NC(=O)c1cnn2ccc(-c3cn[nH]c3)cc12 [Example 44, N-(2-methyl-5-(2-((1r,3r)-3-(trifluoromethyl)cyclobutyl)-2H-tetrazol-5-yl)phenyl)-5-(1H-pyrazol-4-yl)pyrazolo[1,5-a]pyridine-3-carboxamide or N-(2-methyl-5-(2-((1s,3s)-3-(trifluoromethyl)cyclobutyl)-2H-tetrazol-5-yl)phenyl)-5-(1H-pyrazol-4-yl)pyrazolo[1,5-a]pyridine-3-carboxamide] | 1.5 | 15.9 |
| Cc1ccc(-c2nnn(C3CC(F)(F)C3)n2)cc1NC(=O)c1cnn2ccc(-c3cn[nH]c3)cc12 [Example 198, N-(5-(2-(3,3-difluorocyclobutyl)-2H-tetrazol-5-yl)-2-methylphenyl)-5-(1H-pyrazol-4-yl)pyrazolo[1,5-a]pyridine-3-carboxamide] | 1.7 | 16.6 |
| Cc1ccc(-c2nnn(C[C@@H]3CC3(F)F)n2)cc1NC(=O)c1cnn2ccc(-c3cn[nH]c3)cc12 (single isomer, unassigned) [Example 56, (S)—N-(5-(2-((2,2-difluorocyclopropyl)methyl)-2H-tetrazol-5-yl)-2-methylphenyl)-5-(1H-pyrazol-4-yl)pyrazolo[1,5-a]pyridine-3-carboxamide or (R)—N-(5-(2-((2,2-difluorocyclopropyl)methyl)-2H-tetrazol-5-yl)-2-methylphenyl)-5-(1H-pyrazol-4-yl)pyrazolo[1,5-a]pyridine-3-carboxamide] | 1.1 | 24.5 |
| COCCS(=O)(=O)N1CC(c2nnn(-c3ccc(C)c(NC(=O)c4cnn5ccccc45)c3)n2)C1 [Example 189, N-(5-(5-(1-((2-methoxyethyl)sulfonyl)azetidin-3-yl)-2H-tetrazol-2-yl)-2-methylphenyl)pyrazolo[1,5-a]pyridine-3-carboxamide] | 4.9 |  |
| Cc1ccc(-c2nnn(C[C@H]3CC3(F)F)n2)cc1NC(=O)c1cnn2ccc(-c3cn[nH]c3)cc12 (single isomer, unassigned) [Example 55, (R)—N-(5-(2-((2,2-difluorocyclopropyl)methyl)-2H-tetrazol-5-yl)-2-methylphenyl)-5-(1H-pyrazol-4-yl)pyrazolo[1,5-a]pyridine-3-carboxamide or (S)—N-(5-(2-((2,2-difluorocyclopropyl)methyl)-2H-tetrazol-5-yl)-2-methylphenyl)-5-(1H-pyrazol-4-yl)pyrazolo[1,5-a]pyridine-3-carboxamide] | 1.1 | 19.7 |
| Cc1ccc(-c2nnn(C3CC(F)(F)C3)n2)cc1NC(=O)c1cnn2ccc(N3CCOCC3)cc12 [Example 79, N-(5-(2-(3,3-difluorocyclobutyl)-2H-tetrazol-5-yl)-2-methylphenyl)-5-morpholinopyrazolo[1,5-a]pyridine-3-carboxamide] | 3.9 |  |
| Cc1ccc(-c2nnn(CC[C@@](C)(O)C(F)(F)F)n2)cc1NC(=O)c1cnn2ccccc12 (single isomer, unassigned) [Example 41, (R)-N-(2-methyl-5-(2-(4,4,4-trifluoro-3-hydroxy-3-methylbutyl)-2H-tetrazol-5-yl)phenyl)pyrazolo[1,5-a]pyridine-3-carboxamide or (S)-N-(2-methyl-5-(2-(4,4,4-trifluoro-3-hydroxy-3-methylbutyl)-2H-tetrazol-5-yl)phenyl)pyrazolo[1,5-a]pyridine-3-carboxamide] | 1.8 |  |
| COc1ccn2ncc(C(=O)Nc3cc(-c4nnn(C5CN(S(C)(=O)=O)C5)n4)ccc3C)c2c1 [Example 153, 5-methoxy-N-(2-methyl-5-(2-(1-(methylsulfonyl)azetidin-3-yl)-2H-tetrazol-5-yl)phenyl)pyrazolo[1,5-a]pyridine-3-carboxamide] | 4.5 | 3.9 |
| Cc1ccc(-c2nnn(C3CN(S(C)(=O)=O)C3)n2)cc1NC(=O)c1cnn2ccc(C3CC3)cc12 [Example 50, 5-cyclopropyl-N-(2-methyl-5-(2-(1-(methylsulfonyl)azetidin-3-yl)-2H-tetrazol-5-yl)phenyl)pyrazolo[1,5-a]pyridine-3-carboxamide] | 8 | 6.5 |
| Cc1ccc(-c2nnn(C)n2)cc1NC(=O)c1cnn2ccc(-c3cn[nH]c3)cc12 [Example 43, N-(2-methyl-5-(2-methyl-2H-tetrazol-5-yl)phenyl)-5-(1H-pyrazol-4-yl)pyrazolo[1,5-a]pyridine-3-carboxamide] | 5.4 | 11.9 |
| Cc1ccc(-c2nnn(C[C@H]3CCCCO3)n2)cc1NC(=O)c1cnn2ccccc12 (single isomer, unassigned) [Example 40, (S)-N-(2-methyl-5-(2-((tetrahydro-2H-pyran-2-yl)methyl)-2H-tetrazol-5-yl)phenyl)pyrazolo[1,5-a]pyridine-3-carboxamide or (R)-N-(2-methyl-5-(2-((tetrahydro-2H-pyran-2-yl)methyl)-2H-tetrazol-5-yl)phenyl)pyrazolo[1,5-a]pyridine-3-carboxamide] | 3.1 |  |
| O=C(Nc1cc(-c2nnn(CCOCC(F)(F)F)n2)ccc1Cl)c1cnn2ccccc12 [Example 22, N-(2-chloro-5-(2-(2-(2,2,2-trifluoroethoxy)ethyl)-2H-tetrazol-5-yl)phenyl)pyrazolo[1,5-a]pyridine-3-carboxamide] | 1.9 |  |

The next lines start with the values.

| IC50 [1] [nM] | efflux ratio at 2 h, 1 µM [2] | Compound |
| --- | --- | --- |
| 16.7 | 12.8 | Cc1ccc(-c2nnn(C3CN(S(=O)(=O)CCO)C3)n2)cc1NC(=O)c1cnn2ccccc12 [Example 203, N-(5-(2-(1-((2-hydroxyethyl)sulfonyl)azetidin-3-yl)-2H-tetrazol-5-yl)-2-methylphenyl)pyrazolo[1,5-a]pyridine-3-carboxamide] |
| 6.4 | 3.1 | Cc1ccc(-c2nnn(C3CN(S(=O)(=O)C4(C)CC4)C3)n2)cc1NC(=O)c1cnn2ccccc12 [Example 181, N-(2-methyl-5-(2-(1-((1-methylcyclopropyl)sulfonyl)azetidin-3-yl)-2H-tetrazol-5-yl)phenyl)pyrazolo[1,5-a]pyridine-3-carboxamide] |
| 2.5 |  | Cc1ccc(-c2nnn(C3CC(F)C3)n2)cc1NC(=O)c1cnn2ccccc12 (centres unmarked) [Example 32, N-(5-(2-(3-fluorocyclobutyl)-2H-tetrazol-5-yl)-2-methylphenyl)pyrazolo[1,5-a]pyridine-3-carboxamide] |
| 8.3 |  | Cc1ccc(-c2nnn(C3CCOCC3)n2)cc1NC(=O)c1cnn2ccccc12 [Example 31, N-(2-methyl-5-(2-(tetrahydro-2H-pyran-4-yl)-2H-tetrazol-5-yl)phenyl)pyrazolo[1,5-a]pyridine-3-carboxamide] |
| 2.6 |  | Cc1ccc(-c2nnn(C3CC4(CCC4)C3)n2)cc1NC(=O)c1cnn2ccccc12 [Example 4, N-(2-methyl-5-(2-(spiro[3.3]heptan-2-yl)-2H-tetrazol-5-yl)phenyl)pyrazolo[1,5-a]pyridine-3-carboxamide] |
| 9.1 |  | Cc1ccc(-c2nnn(C3CC3)n2)cc1NC(=O)c1cnn2ccccc12 [Example 28, N-(5-(2-cyclopropyl-2H-tetrazol-5-yl)-2-methylphenyl)pyrazolo[1,5-a]pyridine-3-carboxamide] |
| 3.8 |  | CO[C@H]1C[C@@H](n2nnc(-c3ccc(C)c(NC(=O)c4cnn5ccccc45)c3)n2)C1 [Example 35, N-(5-(2-((1s,3s)-3-methoxycyclobutyl)-2H-tetrazol-5-yl)-2-methylphenyl)pyrazolo[1,5-a]pyridine-3-carboxamide] |
| 3.8 |  | Cc1ccc(-c2nnn(C3CC4(C3)CC4(F)F)n2)cc1NC(=O)c1cnn2ccccc12 (single isomer, unassigned) [Example 42, N-(5-(2-((3r,5r)-1,1-difluorospiro [2.3]hexan-5-yl)-2H-tetrazol-5-yl)-2-methylphenyl)pyrazolo[1,5-a]pyridine-3-carboxamide or N-(5-(2-((3s,5s)-1,1-difluorospiro[2.3]hexan-5-yl)-2H-tetrazol-5-yl)-2-methylphenyl)pyrazolo[1,5-a]pyridine-3-carboxamide] |
